Measured values reported in PubChem BioAssay AID330 (DTP/NCI, 2004).
Where “and” joins values, the source holds several entries; their conditions need not be identical. Equal values may be shown once. Inconclusive results and toxic doses are left out. Rule for the calls: active = survival T/C of 150% or more; inactive = T/C below 125% in these data.

Test system: P388 leukemia ip, CD2F1 mice, survival T/C
Assay: NCI In Vivo Anticancer Drug Screen. Data for tumor model P388 Leukemia (intraperitoneal) in CD2F1 (CDF1) mice
Details: endpoint: median survival time, higher = longer survival
Procedure, shortened: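 Mice carrying the transplanted tumor received test compound or vehicle. Survival was recorded in each group, and the value is the treated-group measurement divided by that of the vehicle-treated control group.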

[1] = dose: 60.0 mg/kg/injection, schedule: Q01DX005 (ip), vehicle: saline with Tween-80
[2] = dose: 120.0 mg/kg/injection, schedule: Q01DX005 (ip), vehicle: saline with Tween-80
[3] = dose: 240.0 mg/kg/injection, schedule: Q01DX005 (ip), vehicle: saline with Tween-80
[4] = dose: 50.0 mg/kg/injection, schedule: Q01DX009 (ip), vehicle: Klucel (hydroxypropylcellulose) (HPC)
[5] = dose: 100.0 mg/kg/injection, schedule: Q01DX009 (ip), vehicle: Klucel (hydroxypropylcellulose) (HPC)
[6] = dose: 200.0 mg/kg/injection, schedule: Q01DX009 (ip), vehicle: Klucel (hydroxypropylcellulose) (HPC)
[7] = dose: 50.0 mg/kg/injection, schedule: Q01DX009 (ip), vehicle: saline with Tween-80
[8] = dose: 100.0 mg/kg/injection, schedule: Q01DX009 (ip), vehicle: saline with Tween-80
[9] = dose: 200.0 mg/kg/injection, schedule: Q01DX009 (ip), vehicle: saline with Tween-80
[10] = dose: 50.0 mg/kg/injection, schedule: Q01DX005 (ip), vehicle: Klucel (hydroxypropylcellulose) (HPC)
[11] = dose: 100.0 mg/kg/injection, schedule: Q01DX005 (ip), vehicle: Klucel (hydroxypropylcellulose) (HPC)
[12] = dose: 200.0 mg/kg/injection, schedule: Q01DX005 (ip), vehicle: Klucel (hydroxypropylcellulose) (HPC)

Measured: T/C

O=C1CCC(NC(=O)c2ccccc2)C(=O)N1 (centres undefined)
inactive: dose: 31.25 mg/kg/injection, schedule: Q01DX005 (ip), vehicle: Klucel (hydroxypropylcellulose) (HPC) 102 % of control | [1] 98 % of control | dose: 62.5 mg/kg/injection, schedule: Q01DX005 (ip), vehicle: Klucel (hydroxypropylcellulose) (HPC) 98 % of control | [2] 107 % of control | dose: 125.0 mg/kg/injection, schedule: Q01DX005 (ip), vehicle: Klucel (hydroxypropylcellulose) (HPC) 102 % of control | [3] 100 % of control | dose: 250.0 mg/kg/injection, schedule: Q01DX005 (ip), vehicle: Klucel (hydroxypropylcellulose) (HPC) 100 % of control | dose: 500.0 mg/kg/injection, schedule: Q01DX005 (ip), vehicle: Klucel (hydroxypropylcellulose) (HPC) 92 % of control

O/N=C/C(Cl)(Cl)Cl
inactive: dose: 3.12 mg/kg/injection, schedule: Q01DX009 (ip), vehicle: saline 105 % of control | dose: 6.25 mg/kg/injection, schedule: Q01DX009 (ip), vehicle: saline 109 % of control | dose: 12.5 mg/kg/injection, schedule: Q01DX009 (ip), vehicle: saline 107 % of control and 97 % of control | dose: 25.0 mg/kg/injection, schedule: Q01DX009 (ip), vehicle: saline 100 % of control and 93 % of control

O=C1CC(c2ccccc2)=NO1
inactive: dose: 100.0 mg/kg/injection, schedule: Q04DX003 (ip), vehicle: Klucel (hydroxypropylcellulose) (HPC) 94 % of control | dose: 200.0 mg/kg/injection, schedule: Q04DX003 (ip), vehicle: Klucel (hydroxypropylcellulose) (HPC) 99 % of control | dose: 400.0 mg/kg/injection, schedule: Q04DX003 (ip), vehicle: Klucel (hydroxypropylcellulose) (HPC) 100 % of control

CC(=O)N(Cc1ccccc1)c1nccs1
inactive: dose: 50.0 mg/kg/injection, schedule: Q01DX005 (ip), vehicle: saline with Tween-80 104 % of control | dose: 100.0 mg/kg/injection, schedule: Q01DX005 (ip), vehicle: saline with Tween-80 99 % of control | dose: 200.0 mg/kg/injection, schedule: Q01DX005 (ip), vehicle: saline with Tween-80 90 % of control

CC1(C)CC(=O)C(CSCS)=C(O)C1
inactive: dose: 100.0 mg/kg/injection, schedule: Q01DX001 (ip), vehicle: Klucel (hydroxypropylcellulose) (HPC) 114 % of control | dose: 200.0 mg/kg/injection, schedule: Q01DX001 (ip), vehicle: Klucel (hydroxypropylcellulose) (HPC) 99 % of control | dose: 400.0 mg/kg/injection, schedule: Q01DX001 (ip), vehicle: Klucel (hydroxypropylcellulose) (HPC) 92 % of control

O=C(Nc1ccc(Cc2ccc(NC(=O)Nc3cccnc3)cc2)cc1)Nc1cccnc1
inactive: [4] 101 % of control | [5] 94 % of control | [6] 88 % of control

CC(=O)OC1CC2CCC1(CC(=O)c1ccccc1)C2(C)C (centres undefined)
inactive: [7] 96 % of control | [8] 92 % of control | [9] 100 % of control

Oc1cc2c(cc1C(c1ccc(F)cc1)N1CCOCC1)OCO2 (centres undefined)
inactive: [1] 117 % of control | [2] 102 % of control | [3] 108 % of control

O=P(N1CCCC1)(N1CCCC1)N1CCCC1
inactive: dose: 50.0 mg/kg/injection, schedule: Q01DX009 (ip), vehicle: saline 100 % of control | dose: 100.0 mg/kg/injection, schedule: Q01DX009 (ip), vehicle: saline 102 % of control and 107 % of control | dose: 200.0 mg/kg/injection, schedule: Q01DX009 (ip), vehicle: saline 101 % of control | dose: 400.0 mg/kg/injection, schedule: Q01DX009 (ip), vehicle: saline 103 % of control

C[N+]1=C2CCCCCC2=C(N)CC1
inactive: dose: 3.13 mg/kg/injection, schedule: Q04DX003 (ip), vehicle: saline 100 % of control | dose: 6.25 mg/kg/injection, schedule: Q04DX003 (ip), vehicle: saline 104 % of control | dose: 12.5 mg/kg/injection, schedule: Q04DX003 (ip), vehicle: saline 100 % of control

O=c1c2ccccc2c(=O)n2n1C1C=CC2C1
inactive: [10] 107 % of control | [11] 105 % of control | [12] 100 % of control

CC=C(C)c1ccccc1 (mixture of isomers)
inactive: dose: 25.0 mg/kg/injection, schedule: Q01DX009 (ip), vehicle: saline with Tween-80 104 % of control | [7] 100 % of control | [8] 103 % of control | [9] 105 % of control

OC1(c2ccncc2)C=CCC1 (centres undefined)
inactive: dose: 100.0 mg/kg/injection, schedule: Q04DX002 (ip), vehicle: saline with Tween-80 95 % of control

COc1cc2c(cc1OC)[C@]13C[C@@H](OC)C=CC14OC4CN3CCC2 (some centres undefined)
inactive: dose: 20.0 mg/kg/injection, schedule: Q01DX009 (ip), vehicle: saline with Tween-80 90 % of control | dose: 40.0 mg/kg/injection, schedule: Q01DX009 (ip), vehicle: saline with Tween-80 95 % of control | dose: 80.0 mg/kg/injection, schedule: Q01DX009 (ip), vehicle: saline with Tween-80 90 % of control | dose: 150.0 mg/kg/injection, schedule: Q01DX009 (ip), vehicle: saline with Tween-80 122 % of control

C=C[C@@H]1C[C@@]2(C)O[C@@H]([C@@H](OCc3ccccc3)[C@@H]1OC)[C@@H](C)O2
inactive: dose: 100.0 mg/kg/injection, schedule: Q01DX001 (ip), vehicle: saline with Tween-80 96 % of control | dose: 200.0 mg/kg/injection, schedule: Q01DX001 (ip), vehicle: saline with Tween-80 104 % of control | dose: 400.0 mg/kg/injection, schedule: Q01DX001 (ip), vehicle: saline with Tween-80 104 % of control

Cc1ccc(S(=O)(=O)C2(Sc3ccccc3)SC2C(=O)c2ccccc2)cc1 (centres undefined)
inactive: [4] 99 % of control | [5] 105 % of control | [6] 111 % of control

Cc1cc(O)c2c(c1)C(=O)c1cc(O)cc(OC3OC(CO)C(O)C(O)C3O)c1C2=O (centres undefined)
inactive: dose: 5.0 mg/kg/injection, schedule: Q01DX009 (ip), vehicle: saline 105 % of control | dose: 10.0 mg/kg/injection, schedule: Q01DX009 (ip), vehicle: saline 105 % of control | dose: 20.0 mg/kg/injection, schedule: Q01DX009 (ip), vehicle: saline 89 % of control

CC12CC(=O)C3C(CCC4CC(OS(=O)(=O)O)CCC43C)C1CC1OC(=O)C=C12 (centres undefined)
inactive: [10] 98 % of control | [11] 100 % of control | [12] 94 % of control

CCN(CC)CCN(C(=O)C1c2ccccc2Oc2ccccc21)C1CCCCC1
inactive: dose: 12.5 mg/kg/injection, schedule: Q01DX005 (ip), vehicle: Klucel (hydroxypropylcellulose) (HPC) 101 % of control | dose: 25.0 mg/kg/injection, schedule: Q01DX005 (ip), vehicle: Klucel (hydroxypropylcellulose) (HPC) 100 % of control | [10] 98 % of control and 92 % of control

CCCOc1cccc2c1C(=O)c1c(O)c3c(c(O)c1C2=O)C[C@@](O)(C(C)=O)C[C@@H]3OC1CC(N)C(O)C(C)O1 (some centres undefined)
inactive: dose: 3.13 mg/kg/injection, schedule: Q04DX003 (ip), vehicle: water 105 % of control | dose: 6.25 mg/kg/injection, schedule: Q04DX003 (ip), vehicle: water 121 % of control | dose: 12.5 mg/kg/injection, schedule: Q04DX003 (ip), vehicle: water 121 % of control

N=C(N)c1ccc2nc(/C=C\c3nc4ccc(C(=N)N)cc4[nH]3)[nH]c2c1
inactive: dose: 100.0 mg/kg/injection, schedule: Q04DX002 (ip), vehicle: saline 110 % of control | dose: 200.0 mg/kg/injection, schedule: Q04DX002 (ip), vehicle: saline 117 % of control

CC(C)CC(NC(=O)C(CS)NC(=O)CN1C(=O)CCC1=O)C(N)=O (centres undefined)
inactive: [10] 105 % of control | [11] 100 % of control | [12] 101 % of control

CC1Cn2c(c(-c3ccccc3)c(=O)[nH]c2=S)O1 (centres undefined)
inactive: [7] 100 % of control | [8] 98 % of control | [9] 91 % of control

Cc1cc(NCCCN(C)C)c2cc3ccc4cccc5ccc(c2n1)c3c45
inactive: [7] 109 % of control | [8] 108 % of control

O=C1OCc2c[n+]([O-])ccc21
inactive: dose: 20.0 mg/kg/injection, schedule: Q01DX005 (ip), vehicle: Klucel (hydroxypropylcellulose) (HPC) 96 % of control | dose: 40.0 mg/kg/injection, schedule: Q01DX005 (ip), vehicle: Klucel (hydroxypropylcellulose) (HPC) 118 % of control | dose: 80.0 mg/kg/injection, schedule: Q01DX005 (ip), vehicle: Klucel (hydroxypropylcellulose) (HPC) 91 % of control

COc1cc(C#N)cc(OC)c1
inactive: dose: 25.0 mg/kg/injection, schedule: Q04DX003 (ip), vehicle: saline with Tween-80 109 % of control | dose: 50.0 mg/kg/injection, schedule: Q04DX003 (ip), vehicle: saline with Tween-80 100 % of control | dose: 100.0 mg/kg/injection, schedule: Q04DX003 (ip), vehicle: saline with Tween-80 100 % of control | dose: 200.0 mg/kg/injection, schedule: Q04DX003 (ip), vehicle: saline with Tween-80 100 % of control
